PMC11813143, “HBV polymerase recruits the phosphatase PP1 to dephosphorylate HBc-Ser170 to complete encapsidation” (PLOS Pathogens, 2025)
Where no end group is shown, it is not given here.

Tested on: C-S170 Ab
Assay: ELISA binding of immobilized HBc CTD peptides to C-S170 Ab
Set-up: species or system rabbit
Details: Fig 1C; for O.D. Mean: mean of n = 2
Description: To quantify the binding specificity of C-S170 Ab with non-phosphorylated HBc-Ser170, a flat-bottomed 96-well plate was coated with 100 ng of various peptides, including the non-phosphorylated and phosphorylated peptides covering Ser150, Ser162 and Ser170, and then the C-S170 Ab was added to the wells. For the competition of various peptides to C-S170 Ab, the 96-well plate was coated with 100 ng of non-phosphorylated HBc-Ser170 peptide and then a preincubated mixture containing 100 ng of peptide and the C-S170 Ab was added to the wells. After incubation with rabbit IgG conjugated with HRP, TMB substrate and a stop solution were added. The absorbance at a wavelength of 450 nm (A450) with a reference wavelength of 650 nm was measured using a microplate reader. GraphPad Prism 5 software was used to generate bar graphs and calculate Kd values, binding percentages, and inhibition percentages.

## PRRRRSQSPRRRR [Ser170]
[Ab] 0.0001 ng/mL
  O.D. Mean: 0.008
[Ab] 0.0001 ng/mL, replicate 1
  O.D.: 0.008
[Ab] 0.0001 ng/mL, replicate 2
  O.D.: 0.008
[Ab] 0.001 ng/mL
  O.D. Mean: 0.032
[Ab] 0.001 ng/mL, replicate 1
  O.D.: 0.034
[Ab] 0.001 ng/mL, replicate 2
  O.D.: 0.03
[Ab] 0.01 ng/mL
  O.D. Mean: 0.271
[Ab] 0.01 ng/mL, replicate 1
  O.D.: 0.255
[Ab] 0.01 ng/mL, replicate 2
  O.D.: 0.288
[Ab] 0.1 ng/mL
  O.D. Mean: 1.801
[Ab] 0.1 ng/mL, replicate 1
  O.D.: 1.753
[Ab] 0.1 ng/mL, replicate 2
  O.D.: 1.85
